Data taken from patent US8337828B2, “Use of thymosin alpha 1, alone or in combination with PTX3 or ganciclovir, for the treatment of cytomegalovirus infection” (priority 2006, dated 2012).
Ends that are not written are not given here.

Assays:
spleen cells = test: Cytokine levels in culture supernatants of spleen cells from MCMV-infected mice (ELISA); type: in vivo
Text: Arrow indicates an inducible band. Lane 1, uninfected cells; lane 2, MCMV-infected; lane 3, Thymosin alpha 1 treated; lane 4, MCMV+Thymosin alpha 1 treated. (FIG. 3b) Cytokine production (pg/ml) by DC subsets treated as above. Bars indicate the standard errors. *P<0.05, cytokine production in MCMV-infected DC vs uninfected DC. **P<0.05, Thymosin alpha 1-treated vs untreated DC. (FIG. 3c) Cytokine production in mice during MCMV infection. Cytokine levels (pg/ml) in culture supernatants of spleen cells from mice with MCMV infection and treated for a week with Thymosin alpha 1 or GCV. *P<0.05, treated vs untreated mice. ND, not done.
Viral load (FIG. 4a) and cytokine production (FIG. 4b) in C57BL6, TLR4−/−, TLR9−/− and MyD88−/− mice infected with 5×10^5 PFU of MCMV and treated with 200 μg/kg Tα1 for a week. Virus titers, expressed as log 10, were quantified on MEF cells by standard plaque assay on infected tissues removed a week after infection and treatment. Cytokine (pg/ml) levels in culture supernatants of spleen cells were determined by ELISA assay. Bars indicate the standard errors. *P<0.05, Tα1-treated vs untreated mice. Results are representative of 3 independent experiments.
BALB/c or C57BL6 mice were infected with 10^5 or 5×10^5 PFU of MCMV, respectively. Virus titers, expressed as log 10, were quantified on MEF cells by standard plaque assay on lung tissues removed 7 days after the infection. Tα1 (200 μg/kg/daily for a week) and/or GCV (40 mg/kg, three times a week) were administered beginning the day of the infection. Cytokine (pg/ml) levels in culture supernatants of spleen cells (7 days) were determined by ELISA assay. Bars indicate the standard errors. *P<0.05, treated vs untreated mice. Results are representative of 3 independent experiments.
Quantification of cytokines by ELISA and ELISPOT assays. The levels of cytokines in the culture supernatants of mitogen-stimulated spleen cells (48 h stimulation with 10 μg/ml ConA) or MCMV-pulsed DC (24 h) were determined by ELISA (R&D Systems and PBL, Biomedical Lab, Milan, Italy). The detection limits (pg/ml) of the assays were <16 for IL-12 p70, <10 for IFN-., <3 for IL-10 and <10 for IFN-a. IFN-.-producing NK cells were enumerated by ELISPOT assay on purified NK (Virus Res. 2003; 98:17-467 25). Results are expressed as the mean number of cytokine-producing cells (±SE) per 10^5 cells, calculated using replicates of serial 2-fold dilutions of cells.

[1] = tested on: methylcholanthrene-induced fibrosarcoma; conditions: mouse, in vivo; cited from earlier work
[2] = BALB/c mice with MCMV infection, particularly in the first weeks

For “Ac-Ser-Asp-Ala-Ala-Val-Asp-Thr-Ser-Ser-Glu -Ile-Thr-Thr-Lys-Asp-Leu-Lys-Glu-Lys-Lys-Glu-Val-Glu-Glu-Ala-Glu-Asn-O (Ac-SDAAVDTSSEITTKDLKEKKEVEEAEN) [Thymosin alpha 1, acidic peptide present in thymus extract with immunoregulatory properties]”, the IL-10 production (spleen cells; BALB/c mice with MCMV infection) was “dramatically increased”, the IFN-. production (spleen cells; [2]) was “significantly increased” and the IFN-a production (spleen cells; [2]) was “significantly increased”. The IL-12p70 production (spleen cells; BALB/c mice with MCMV infection, soon after treatment, declining thereafter) was “slightly increased”, the “levels of IFN-α, IL-12p70 and IFN-. in supernatants of splenocytes” value (spleen cells; C57BL6 and TLR4-/- mice, 200 μg/kg for a week) was “significantly increased” and the pulmonary metastases [1] was “reduced”.
